# Laboratory results reported in ChEMBL document CHEMBL4229379, “Synthesis and structure-activity relationship of novel bisindole amidines active against MDR Gram-positive and Gram-negative bacteria” (Eur J Med Chem, 2018).
# How the values were obtained:
# Format in all cases: functional
# Enterococcus faecium = experiment: Antibacterial activity against vancomycin-resistant Enterococcus faecium ATCC 700221 after 18 hrs by CLSI broth microdilution method; conditions: ATCC 700221, 18 h
# Klebsiella pneumoniae [1] = experiment: Antibacterial activity against extended-spectrum beta-lactamase harboring Klebsiella pneumoniae 12-8 after 18 hrs by CLSI broth microdilution method; conditions: 12-8, 18 h
# [2] = test system: Acinetobacter calcoaceticus; experiment: Antibacterial activity against Acinetobacter calcoaceticus ATCC 19606 after 18 hrs by CLSI broth microdilution method; conditions: ATCC 19606, 18 h
# Proteus mirabilis = experiment: Antibacterial activity against Proteus mirabilis 12-6 after 18 hrs by CLSI broth microdilution method; conditions: 12-6, 18 h
# Klebsiella pneumoniae [3] = experiment: Antibacterial activity against new delhi metallo-beta-lactamase-1 harboring Klebsiella pneumoniae 13-1 after 18 hrs by CLSI broth microdilution method; conditions: 13-1, 18 h
# Klebsiella aerogenes = experiment: Antibacterial activity against carbapenem-resistant Enterobacter aerogenes 11-4 after 18 hrs by CLSI broth microdilution method; conditions: 11-4, 18 h
# Enterobacter cloacae = experiment: Antibacterial activity against new delhi metallo-beta-lactamase-1 harboring Enterobacter cloacae CDC1000654 after 18 hrs by CLSI broth microdilution method; conditions: CDC1000654, 18 h
# Staphylococcus aureus [4] = experiment: Antibacterial activity against methicillin-sensitive Staphylococcus aureus 15 after 18 hrs by CLSI broth microdilution method; conditions: Staphylococcus aureus, 15, 18 h
# Escherichia coli = experiment: Antibacterial activity against extended-spectrum beta-lactamase deficient Escherichia coli 12-14 after 18 hrs by CLSI broth microdilution method; conditions: 12-14, 18 h
# [5] = test system: Stenotrophomonas maltophilia; experiment: Antibacterial activity against Stenotrophomonas maltophilia ATCC 13636 after 18 hrs by CLSI broth microdilution method; conditions: ATCC 13636, 18 h
# Staphylococcus aureus [6] = experiment: Antibacterial activity against methicillin-resistant Staphylococcus aureus ATCC 33591 infected in ICR mouse assessed as mouse survival at 2.5 mg/kg, iv administered at 1 and 5 hrs post infection and measured on day 7 day post last dose (reference value: 0%); conditions: ATCC 33591, iv
# Staphylococcus aureus [7] = experiment: Antibacterial activity against methicillin-resistant Staphylococcus aureus ATCC 33591 infected in ICR mouse assessed as mouse survival at 3 mg/kg, iv administered at 1 and 5 hrs post infection and measured on day 7 day post last dose (reference value: 0%); conditions: ATCC 33591, iv
# Staphylococcus aureus [8] = experiment: Antibacterial activity against methicillin-resistant Staphylococcus aureus ATCC 33591 infected in ICR mouse assessed as mouse survival at 3.5 mg/kg, iv administered at 1 and 5 hrs post infection and measured on day 7 day post last dose (reference value: 0%); conditions: ATCC 33591, iv
structure (smiles),measurement,setting,value
CN(C)C(=N)c1ccc2cc(-c3ccc(-c4cc5ccc(C(=N)N(C)C)cc5[nH]4)cc3)[nH]c2c1,MIC,Enterococcus faecium,1 µg/mL
same,MIC,Klebsiella pneumoniae [1],4 µg/mL
same,MIC,[2],8 µg/mL
same,MIC,Proteus mirabilis,8 µg/mL
same,MIC,Klebsiella pneumoniae [3],4 µg/mL
same,MIC,Klebsiella aerogenes,8 µg/mL
same,MIC,Enterobacter cloacae,4 µg/mL
same,MIC,Staphylococcus aureus [4],0.25 µg/mL
same,MIC,Escherichia coli,1 µg/mL
same,MIC,[5],8 µg/mL
same,survival at 2.5 mg/kg,Staphylococcus aureus [6],50%
same,survival at 3 mg/kg,Staphylococcus aureus [7],60%
same,survival at 3.5 mg/kg,Staphylococcus aureus [8],80%
